# What was measured:
# Format in all cases: in vivo, human
# [1] = tested on: patients enrolled in the dal-OUTCOMES trial; test: Cox proportional hazards regression of SNP rs1967309 for association with cardiovascular events per treatment arm (dal-OUTCOMES); conditions: for Event (cardiovascular events): 600 mg dalcetrapib arm; for HR (rs1967309, cardiovascular events) / β genetic (rs1967309, cardiovascular events): dalcetrapib arm
# Text: Inclusion Criteria: Patients 45 years of age or older who provided written informed consent were eligible to participate if they had been hospitalized for an acute coronary syndrome characterized by elevated cardiac biomarkers, with symptoms of acute myocardial ischemia, ischemic electrocardiographic abnormalities that were new or presumed to be new, or loss of viable myocardium on imaging. Patients without elevated cardiac biomarkers were eligible to participate if symptoms of acute myocardial ischemia were accompanied by electrocardiographic changes that were new or presumed to be new and by additional evidence of obstructive coronary disease. […] However, no specific statin agent or dose was specified, and patients were not excluded if their LDL cholesterol level remained above 100 mg per deciliter. There were no exclusions on the basis of patients' HDL cholesterol level. […] The patients began a single-blind placebo-based run-in period of approximately 4 to 6 weeks to allow for patients to stabilize and for completion of any planned revascularization procedures. At the end of the run-in period, patients in stable condition were randomized in a 1:1 ratio to 600 mg of dalcetrapib or placebo on top of evidence-based medical care for acute cardiovascular syndrome (“ACS”). The descriptive statistics and analyses were performed using SAS 9.4 software.
# Cox proportional hazards regression of single nucleotide polymorphism (“SNP”) rs1967309 was conducted for association with cardiovascular events in each treatment arm and in patients with a diagnosis of diabetic at baseline in the dal-OUTCOMES trial and in non-diabetic patients separately without controlling for any covariate, as shown in Table 4. Cox proportional hazards regression of SNP rs1967309 was conducted for association with cardiovascular events in each treatment arm and in diabetic and non-diabetic patients separately controlling for age and sex, as shown in Table 5.
# [2] = tested on: patients of the dal-OUTCOMES trial; test: Repeated measures mixed regression of treatment arm for HbA1c, all patients and per genotype (Example 2); conditions: all patients combined and each rs1967309 genotype; with and without covariates
# Experimental: The effect of dalcetrapib on whole-blood HbA1c levels irrespective of genotype and the impact of dalcetrapib on risk of new onset diabetes were retrospectively assessed in patients of the dal-OUTCOMES trial. The descriptive statistics and analyses were performed using SAS 9.4 software.
# [3] = tested on: patients of the dal-OUTCOMES trial; test: Cox proportional hazards regression of dalcetrapib treatment arm for association with new onset diabetes
# Experimental: The effect of dalcetrapib on whole-blood HbA1c levels irrespective of genotype and the impact of dalcetrapib on risk of new onset diabetes were retrospectively assessed in patients of the dal-OUTCOMES trial. The descriptive statistics and analyses were performed using SAS 9.4 software. Diabetes at baseline was defined based on at least one of the following patient criteria: (1) diagnosis of diabetics at baseline in the dal-OUTCOMES trial; (2) whole-blood HbA1c level>=6.5% at baseline; (3) fasting glucose level>=7.0 mmol/L at baseline; and (4) use of diabetes medication at or before baseline. New onset diabetes was defined in non-diabetic patients at baseline based on at least one of the following patient criteria: (1) adverse event (AE) preferred terms “type 2 diabetes mellitus” OR “diabetes mellitus” from the AE file that occurred after randomization; (2) use of diabetes medication that was initiated after randomization; (2) at least one whole-blood HbA1c measurement of >=6.5% after randomization; and (4) at least one fasting glucose measurement of >=126 mg/dl or >=7.0 mmol/L after randomization. Cox proportional hazards regression of dalcetrapib treatment arm for association with new onset diabetes was assessed. There were 598 (14%) new onset diabetes cases in the 4173 non-diabetics at baseline.
# [4] = tested on: patients enrolled in the dal-OUTCOMES trial; test: Descriptive statistics of glucose and HbA1c, reported and change from baseline, by genotype and treatment arm; conditions: non-diabetic patients irrespective of rs1967309 genotype
# Text: The effect of ADCY9 rs1967309 genotypes on patient HbA1C and glucose levels was retrospectively assessed in patients enrolled in the dal-OUTCOMES trial.
# Inclusion Criteria: Patients 45 years of age or older who provided written informed consent were eligible to participate if they had been hospitalized for an acute coronary syndrome characterized by elevated cardiac biomarkers, with symptoms of acute myocardial ischemia, ischemic electrocardiographic abnormalities that were new or presumed to be new, or loss of viable myocardium on imaging. Patients without elevated cardiac biomarkers were eligible to participate if symptoms of acute myocardial ischemia were accompanied by electrocardiographic changes that were new or presumed to be new and by additional evidence of obstructive coronary disease. […] However, no specific statin agent or dose was specified, and patients were not excluded if their LDL cholesterol level remained above 100 mg per deciliter. There were no exclusions on the basis of patients' HDL cholesterol level. […]
# Descriptive statistics of reported and change from baseline of glucose and HbA1C according to the genotype of the SNP rs1967309 were analyzed for each treatment arm and for diabetic and non-diabetic patients separately with non-parametric statistics.
# [5] = tested on: patients enrolled in the dal-OUTCOMES trial; test: Cox proportional hazards regression of diabetes for association with cardiovascular events per rs1967309 genotype and treatment arm (dal-OUTCOMES); conditions: for Event (cardiovascular events) / HR (diabetes, cardiovascular events) / β diabetes (cardiovascular events): dalcetrapib arm
# Text: Inclusion Criteria: Patients 45 years of age or older who provided written informed consent were eligible to participate if they had been hospitalized for an acute coronary syndrome characterized by elevated cardiac biomarkers, with symptoms of acute myocardial ischemia, ischemic electrocardiographic abnormalities that were new or presumed to be new, or loss of viable myocardium on imaging. Patients without elevated cardiac biomarkers were eligible to participate if symptoms of acute myocardial ischemia were accompanied by electrocardiographic changes that were new or presumed to be new and by additional evidence of obstructive coronary disease. […] However, no specific statin agent or dose was specified, and patients were not excluded if their LDL cholesterol level remained above 100 mg per deciliter. There were no exclusions on the basis of patients' HDL cholesterol level. […] The patients began a single-blind placebo-based run-in period of approximately 4 to 6 weeks to allow for patients to stabilize and for completion of any planned revascularization procedures. At the end of the run-in period, patients in stable condition were randomized in a 1:1 ratio to 600 mg of dalcetrapib or placebo on top of evidence-based medical care for acute cardiovascular syndrome (“ACS”). The descriptive statistics and analyses were performed using SAS 9.4 software. […]
# [6] = diabetic patients, controlling for age and sex
# [7] = diabetic patients, no covariate
# [8] = non-diabetic patients, controlling for age and sex
# [9] = non-diabetic patients, no covariate
# [10] = rs1967309 AA, controlling for age and sex
# [11] = rs1967309 AG, controlling for age and sex
# [12] = rs1967309 GG, controlling for age and sex
compound,measurement,setting,value
CCC(CC)CC1(C(=O)Nc2ccccc2SC(=O)C(C)C)CCCCC1 [dalcetrapib],SNP rs1967309 as predictor of cardiovascular events in the dalcetrapib arm,"[1]; diabetic and non-diabetic patients, with and without covariates, significance level of 5%",predictive of cardiovascular events
same,Event (cardiovascular events),"[1]; diabetic patients, Table 4",134
same,Event (cardiovascular events),"[1]; diabetic patients, Table 5",134
same,"HR (rs1967309, cardiovascular events)",[1]; [6],0.6631
same,"β genetic (rs1967309, cardiovascular events)",[1]; [6],−0.4108
same,"HR (rs1967309, cardiovascular events)",[1]; [7],0.6597
same,"β genetic (rs1967309, cardiovascular events)",[1]; [7],−0.4159
same,Event (cardiovascular events),"[1]; non-diabetic patients, Table 4",255
same,Event (cardiovascular events),"[1]; non-diabetic patients, Table 5",255
same,"HR (rs1967309, cardiovascular events)",[1]; [8],0.6366
same,"β genetic (rs1967309, cardiovascular events)",[1]; [8],−0.4516
same,"HR (rs1967309, cardiovascular events)",[1]; [9],0.6400
same,"β genetic (rs1967309, cardiovascular events)",[1]; [9],−0.4462
same,dalcetrapib treatment arm as predictor of HbA1c,[2],significant predictor of reduced HbA1c
same,effect of dalcetrapib on new onset diabetes,[3]; non-diabetic patients at baseline,trend for a protective effect
same,association of new onset diabetes with dalcetrapib treatment arm,"[3]; non-diabetic patients at baseline, all combined and each genotype, P<0.05, with and without covariates",not found to be significantly associated
same,association with treatment arm,"[3]; patients with diabetes at baseline and AA genotype, with and without covariates, patients with events n=27",significant association with treatment arm
same,HbA1c change from baseline compared to placebo,[4],greater reductions in HbA1c
same,whole-blood level of HbA1c with dalcetrapib treatment compared to placebo,[4],systematically lower
same,effect of dalcetrapib on cardiovascular events,[5]; AA patients with diabetes,cardiovascular protective effect
same,Event (cardiovascular events),"[5]; rs1967309 AA, Table 6",37
same,Event (cardiovascular events),"[5]; rs1967309 AA, Table 7",37
same,"HR (diabetes, cardiovascular events)",[5]; [10],1.6850
same,β diabetes (cardiovascular events),[5]; [10],0.5218
same,"HR (diabetes, cardiovascular events)","[5]; rs1967309 AA, no covariate",1.4330
same,β diabetes (cardiovascular events),"[5]; rs1967309 AA, no covariate",0.3597
same,Event (cardiovascular events),"[5]; rs1967309 AG, Table 6",176
same,Event (cardiovascular events),"[5]; rs1967309 AG, Table 7",176
same,"HR (diabetes, cardiovascular events)",[5]; [11],2.2217
same,β diabetes (cardiovascular events),[5]; [11],0.7983
same,"HR (diabetes, cardiovascular events)","[5]; rs1967309 AG, no covariate",2.3398
same,β diabetes (cardiovascular events),"[5]; rs1967309 AG, no covariate",0.8501
same,Event (cardiovascular events),"[5]; rs1967309 GG, Table 6",176
same,Event (cardiovascular events),"[5]; rs1967309 GG, Table 7",176
same,"HR (diabetes, cardiovascular events)",[5]; [12],1.6913
same,β diabetes (cardiovascular events),[5]; [12],0.5255
same,"HR (diabetes, cardiovascular events)","[5]; rs1967309 GG, no covariate",1.7772
same,β diabetes (cardiovascular events),"[5]; rs1967309 GG, no covariate",0.5750

# — US20210236442A1, “METHODS FOR DELAYING OCCURRENCE OF NEW-ONSET TYPE 2 DIABETES AND FOR SLOWING PROGRESSION OF AND TREATING TYPE 2 DIABETES” (Dalcor Pharma UK Ltd., Leatherhead, Zug Branch, priority 2018, published 2021)
